From patent US20100209486A1, “Method of enhancing CoenzymeQ10 levels in mammals” (priority 2009, published 2010)
“Also recorded” adds a separate entry of the source.

How the values were obtained:
[1] = HPLC and MS determination of CoQ9 and CoQ10 in heart samples of supplemented guinea pigs; assay type: in vivo, guinea pig; settings: 5 mg/kg/day CoQ9 oral for 4 weeks, heart tissue
Protocol: FIG. 3. HPLC chromatograms of a) Blank (mobile phase) b) CoQ9 standard solution c) CoQ10 standard solution and d) CoQ9 heart sample. The standards and sample solution were analyzed using an Agilent 1100 HPLC. The mobile phase was methanol-2-propanol-formic acid (45:55:0.05, v/v/v) containing methylamine at the concentration of 5 mmol/L. At a flow rate of 0.2 ml/min, 5 μl injections of the samples were done using the autosampler. The CoQ9 peak eluted at 2.39 minutes and the CoQ10 eluted at 2.86 minutes. However, the CoQ9 heart sample peak eluted at […], which is the same as CoQ10, thus indicating the presence of CoQ10 rather than CoQ9 in the sample.
FIG. 4. Mass Spectrometry (MS). (a) CoQ10 standard, b) CoQ9 standard, c) CoQ10 heart sample) Methylamine was used in the mobile phase to obtain the methyl ammonium adduct molecules of CoQ9 and CoQ10. The sensitivity of the adduct ions [M+CH3NH3]^+ was much higher than that of the protonated ions [M+H]^+ [7]. The MS spectra of both [M+CH3NH3][…] at m/z 826.5 for CoQ9 and m/z 894.6 for CoQ10 were observed. However, the CoQ9 heart sample indicated a mass peak at m/z 894.6, which matches the peak for CoQ10 and not CoQ9. Therefore, there was evidence of CoQ10 in the CoQ9 heart sample from the mass spec. data. This confirmed the hypothesis of bio-conversion of CoQ9 to CoQ10.
However, the retention time of CoQ9 heart sample indicated a retention time of 2.86 minutes and not 2.39 minutes (FIG. 3d). The retention time of the CoQ9 heart sample matched with that of CoQ10 rather than CoQ9. The qualitative analysis was done by identifying the compounds by their retention times. It was obvious that at this point CoQ9 was probably bio-converted to CoQ10. […]
Preparation of CoQ9 and CoQ10 heart samples: Animal preparation, drug pretreatment and isolated working heart preparation were done as described in example 1. […] The samples were analyzed immediately after preparation, and the remainder of the standard solutions was stored at 5° C. for future analysis. […]

[2] = tested on: isolated guinea pig hearts; experiment: Myocardial infarct size (TTC staining) in isolated ischemic/reperfused guinea pig hearts; assay type: in vivo; settings: 5 mg/kg/day oral for 4 weeks; 30 min global ischemia, 120 min reperfusion; ratio infarct zone to risk zone; control 38±4.1%
Protocol: FIG. 2/A Effects of CoQ10 and CoQ9 on infarct size in isolated guinea pig hearts subjected to 30 min of ischemia followed by 120 min of reperfusion. The bars represent mean±SD of infarct size for control, CoQ10 and CoQ9 supplemented groups. *p<0.05 compared to the untreated age-matched ischemic/reperfused drug-free control (C) value. N=12 in each group.
Experimental studies were designed to determine if CoQ9 could protect guinea pig hearts from ischemia reperfusion injury. Myocardial ischemia reperfusion injury model is the most widely accepted experimental method for assessment of parameters related to cardio-protection. […] Cardioprotection was assessed by evaluating left ventricular function, ventricular arrhythmias, myocardial infarct size and cardiomyocyte apoptosis.
CoQ9 and CoQ10 treatment protects from cardiac infarction: Animal preparation, drug pretreatment and isolated working heart preparation were done as described in example 1. […] Using the NIH Image 1.61 image processing software, Infarct zones of each slice were traced and the respective areas were calculated in terms of pixels. The areas were measured by computerized planimetry software and these areas were multiplied by the weight of each slice, then the results summed up to obtain the weight of the risk zone. Infarct size was calculated as the ratio, in percent, of the infarct zone to the risk zone. […]

Structure (SMILES)	CoQ9 detected in the heart after CoQ9 supplementation [1]	bioconversion of CoQ9 into CoQ10 [1]	CoQ10 content in the heart after CoQ9 supplementation ([1]; control chromatogram subtracted)	infarct size [2]
COC1=C(OC)C(=O)C(C/C=C(\C)CC/C=C(\C)CC/C=C(\C)CC/C=C(\C)CC/C=C(\C)CC/C=C(\C)CC/C=C(\C)CC/C=C(\C)CCC=C(C)C)=C(C)C1=O [CoQ9, Coenzyme Q9]	no CoQ9 could be detected in the heart; also recorded: very small or no amount of CoQ9	a substantial portion of CoQ9 had been bio-converted into CoQ10; also recorded: complete bioconversion of CoQ9 into CoQ10	appreciable amount of CoQ10 in the heart tissue; also recorded: significantly high enrichment in the CoQ10 content	16.3±3.2%
COC1=C(OC)C(=O)C(C/C=C(\C)CC/C=C(\C)CC/C=C(\C)CC/C=C(\C)CC/C=C(\C)CC/C=C(\C)CC/C=C(\C)CC/C=C(\C)CC/C=C(\C)CCC=C(C)C)=C(C)C1=O [CoQ10, Coenzyme Q10, reference compound]				21.1±5%
